In ChEMBL document CHEMBL1201862, “PubChem BioAssay data set” (2004):
Activity calls are given as the source filed them. Cut-off read from the data, not from the text of the source, for most assays here: actives have a measured EC50 and inactives only a lower limit.

Tests used:
[1] = molecular target: T1, Ubiquitin-conjugating enzyme E2 N (Homo sapiens, UniProt P61088); format: functional;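 note: Dose-response confirmation in a TR-FRET assay detecting UBC13-driven polyubiquitin chain formation, inhibition measured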
T1 sequence (P61088 whole entry): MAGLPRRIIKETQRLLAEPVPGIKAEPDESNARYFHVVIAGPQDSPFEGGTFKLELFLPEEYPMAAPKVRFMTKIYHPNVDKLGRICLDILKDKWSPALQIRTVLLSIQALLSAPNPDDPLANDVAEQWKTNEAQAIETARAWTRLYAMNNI

[2] = NIH3T3 cell viability loss – ATP luminescence, mouse fibroblasts, counter-screen, dose response (AID 2010); format: functional, cell-based;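 note: cells exposed to compound for about 90 hours before reading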
[3] = Trypanosoma cruzi growth suppression in host cells – NIH3T3 host cells, beta-gal luminescence, confirmation (AID 2044); format: functional, cell-based;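 note: intracellular parasites grown in NIH/3T3 mouse fibroblasts as host cells; luminescent beta-galactosidase reporter signal from transgenic T. cruzi replicating inside host cells; inhibitors lower the luminescence signal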
[4] = Luminescence Cell-Based Dose Response HTS to Identify Activators of Luciferase Translation or Activity in H4 […] Cells. [Related pubchem assays: 1829 (Project Summary), 1814 (Primary HTS)]; format: functional
H4 = test: Luminescence Cell-Based Dose Response HTS to Identify Activators of 5'UTR Stem-Loop Driven Prion Protein mRNA Translation in H4 Neuroglioblastoma Cells. [Related pubchem assays: 1829 (Project Summary), 1814 (Primary HTS)]; format: functional; conditions: Homo sapiens
[5] = Luminescence Cell-Based Dose Confirmation HTS to Identify Activators of 5'UTR Stem-Loop Driven Alpha-Synuclein mRNA Translation in H4 Neuroglioblastoma Cells. [Related pubchem assays: 1829 (Project Summary), 1814 (Primary HTS)]; format: functional
[6] = molecular target: T2, Corticotropin-releasing factor receptor 2/Corticotropin-releasing factor-binding protein (Homo sapiens, UniProt P24387+Q13324); test: activators of CRF receptor 2 with binding protein – uHTS hits, confirmation (AID 602473); format: functional; conditions: read-out: EC50_Mean
T2 sequence (Q13324 whole entry): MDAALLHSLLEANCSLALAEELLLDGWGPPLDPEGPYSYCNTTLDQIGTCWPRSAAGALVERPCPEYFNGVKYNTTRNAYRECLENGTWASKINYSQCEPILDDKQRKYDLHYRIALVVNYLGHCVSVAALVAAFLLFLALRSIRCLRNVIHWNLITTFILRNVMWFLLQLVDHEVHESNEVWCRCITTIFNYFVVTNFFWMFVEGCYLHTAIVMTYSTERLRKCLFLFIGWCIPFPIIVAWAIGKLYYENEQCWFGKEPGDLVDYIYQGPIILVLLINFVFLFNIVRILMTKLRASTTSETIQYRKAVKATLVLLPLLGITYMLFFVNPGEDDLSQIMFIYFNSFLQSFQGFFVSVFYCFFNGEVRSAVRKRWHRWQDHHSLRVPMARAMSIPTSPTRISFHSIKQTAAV
T2 sequence (P24387 whole entry): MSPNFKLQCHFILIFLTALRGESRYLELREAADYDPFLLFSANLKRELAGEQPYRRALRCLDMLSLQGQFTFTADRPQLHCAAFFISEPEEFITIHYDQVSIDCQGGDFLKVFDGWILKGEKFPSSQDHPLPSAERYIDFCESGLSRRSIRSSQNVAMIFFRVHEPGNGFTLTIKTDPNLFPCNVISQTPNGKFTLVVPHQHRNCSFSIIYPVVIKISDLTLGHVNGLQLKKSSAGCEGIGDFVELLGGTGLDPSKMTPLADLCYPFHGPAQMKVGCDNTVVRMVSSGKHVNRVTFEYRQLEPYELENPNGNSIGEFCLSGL

[7] = molecular target: T2, Corticotropin-releasing factor receptor 2/Corticotropin-releasing factor-binding protein; test: Dose Response confirmation of uHTS hits for small molecule antagonists of the CRF-binding protein and CRF-R2 receptor complex.; format: functional; conditions: read-out: IC50_Mean
[8] = molecular target: T3, Heat shock factor protein 1 (Mus musculus, UniProt P38532); test: decrease of HSF1-responsive luciferase luminescence – cell-based, NIH3T3, dose retest, confirmation (AID 2382); format: functional;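 note: NIH3T3 fibroblasts with HSF1-driven luciferase reporter stressed by proteasome inhibitor MG132; luminescence from HSF1-driven luciferase expression after 8 hours of MG132 stress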
T3 sequence (P38532 whole entry): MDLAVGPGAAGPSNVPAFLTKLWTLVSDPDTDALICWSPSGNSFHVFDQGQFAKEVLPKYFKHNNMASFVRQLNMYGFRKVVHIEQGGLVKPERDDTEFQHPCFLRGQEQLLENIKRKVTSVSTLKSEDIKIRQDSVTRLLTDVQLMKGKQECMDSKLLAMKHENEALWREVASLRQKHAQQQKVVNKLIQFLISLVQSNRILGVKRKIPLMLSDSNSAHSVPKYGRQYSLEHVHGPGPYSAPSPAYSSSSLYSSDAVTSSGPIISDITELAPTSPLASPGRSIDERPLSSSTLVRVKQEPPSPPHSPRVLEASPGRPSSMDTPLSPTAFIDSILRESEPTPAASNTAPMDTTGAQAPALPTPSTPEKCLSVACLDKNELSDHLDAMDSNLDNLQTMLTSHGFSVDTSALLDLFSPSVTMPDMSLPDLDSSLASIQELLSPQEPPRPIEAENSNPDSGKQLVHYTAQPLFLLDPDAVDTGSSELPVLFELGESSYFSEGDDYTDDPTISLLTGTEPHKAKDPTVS

INS1 = test: INS-1E survival protection against cytokine death – cell-based, luminescence, retest, dose response (AID 449756); format: functional; conditions: Rattus norvegicus;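 note: cell death triggered by IL-1 beta plus TNF-alpha plus IFN-gamma mixture; protective hits raise ATP signal compared with cytokine alone wells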
[9] = viability of uninfected HEp-2 cells – cell-based, HTS, cytotoxicity control for RSV inhibitor project, dose response (AID 2410); format: functional; conditions: human respiratory syncytial virus
[10] = tested on: Streptococcus sp. 'group A'; test: Streptococcus pyogenes SK(-)GAS viability under kanamycin – luminescence, BacTiterGlo, confirmation, counter-screen for streptokinase expression inhibitor project, dose response (AID 1900); format: functional, organism-based
Streptococcus = test: GAS UMAA2166 growth inhibition – luminescence, BacTiterGlo, counter-screen for streptokinase expression inhibitor project, dose response (AID 1915); format: functional, organism-based;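 note: potency for reduction of bacterial viability or growth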
Streptokinase A = molecular target: T4, Streptokinase A (Streptococcus pyogenes serotype M1, UniProt P10520); test: viability-normalized secreted streptokinase activity reduction – plasminogen activation absorbance, OD405, dose response (AID 1914); format: functional, Streptococcus pyogenes M1 GAS;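 note: secreted streptokinase activity via plasminogen activation per viability signal from cell pellet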
T4 sequence (P10520 whole entry): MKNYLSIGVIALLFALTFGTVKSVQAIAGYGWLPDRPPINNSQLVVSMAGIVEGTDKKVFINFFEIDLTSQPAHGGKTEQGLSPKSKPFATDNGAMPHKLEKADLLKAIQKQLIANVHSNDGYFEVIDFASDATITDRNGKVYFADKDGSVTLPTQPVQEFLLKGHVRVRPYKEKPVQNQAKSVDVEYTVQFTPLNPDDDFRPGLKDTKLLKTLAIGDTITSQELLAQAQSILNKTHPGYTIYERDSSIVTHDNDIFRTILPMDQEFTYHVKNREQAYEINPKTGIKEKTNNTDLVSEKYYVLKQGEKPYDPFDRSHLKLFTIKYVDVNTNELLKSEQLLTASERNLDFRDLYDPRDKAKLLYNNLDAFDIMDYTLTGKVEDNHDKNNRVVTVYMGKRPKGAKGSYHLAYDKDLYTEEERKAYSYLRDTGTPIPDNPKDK

Paired box protein Pax-8 = Paired box protein Pax-8 (Homo sapiens, UniProt Q06710); test: PAX8 transcriptional activity inhibition in RMG-I – RMG-I cells, luciferase, cherry-pick, dose response (AID 687027); format: functional, cell-based;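 note: luciferase reporter driven by Pax8 target thyroperoxidase promoter measured by SteadyGlo luminescence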
[11] = NIH-3T3 fibroblast cytotoxicity, dose response, cytotoxicity control, cell-based, fluorescence, Alamar Blue, secondary assay (AID 2327); format: functional;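 note: NIH-3T3 mouse fibroblasts cultured with fluconazole at 8 µg/mL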
[12] = fluconazole-exposed Candida albicans growth modulators – fluorescence, retest, confirmation (AID 2467); format: functional, cell-based
Cytochrome P450 2C9 = Cytochrome P450 2C9 (Homo sapiens, UniProt P11712)
Chain of Cytochrome P450 2C9 (P11712 whole entry): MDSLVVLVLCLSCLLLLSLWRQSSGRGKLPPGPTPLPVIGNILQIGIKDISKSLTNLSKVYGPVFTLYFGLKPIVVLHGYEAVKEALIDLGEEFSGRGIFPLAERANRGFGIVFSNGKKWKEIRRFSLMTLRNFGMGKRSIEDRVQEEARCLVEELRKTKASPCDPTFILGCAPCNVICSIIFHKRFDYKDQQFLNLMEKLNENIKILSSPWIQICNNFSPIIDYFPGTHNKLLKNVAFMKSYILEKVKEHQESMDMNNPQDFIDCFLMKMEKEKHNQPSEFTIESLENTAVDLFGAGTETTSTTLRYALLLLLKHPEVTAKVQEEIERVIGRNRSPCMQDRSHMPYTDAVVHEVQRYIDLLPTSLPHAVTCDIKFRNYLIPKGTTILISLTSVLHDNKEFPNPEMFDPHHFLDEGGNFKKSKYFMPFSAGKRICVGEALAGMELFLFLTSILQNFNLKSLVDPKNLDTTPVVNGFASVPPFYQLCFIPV

Chain of Paired box protein Pax-8 (Q06710 whole entry): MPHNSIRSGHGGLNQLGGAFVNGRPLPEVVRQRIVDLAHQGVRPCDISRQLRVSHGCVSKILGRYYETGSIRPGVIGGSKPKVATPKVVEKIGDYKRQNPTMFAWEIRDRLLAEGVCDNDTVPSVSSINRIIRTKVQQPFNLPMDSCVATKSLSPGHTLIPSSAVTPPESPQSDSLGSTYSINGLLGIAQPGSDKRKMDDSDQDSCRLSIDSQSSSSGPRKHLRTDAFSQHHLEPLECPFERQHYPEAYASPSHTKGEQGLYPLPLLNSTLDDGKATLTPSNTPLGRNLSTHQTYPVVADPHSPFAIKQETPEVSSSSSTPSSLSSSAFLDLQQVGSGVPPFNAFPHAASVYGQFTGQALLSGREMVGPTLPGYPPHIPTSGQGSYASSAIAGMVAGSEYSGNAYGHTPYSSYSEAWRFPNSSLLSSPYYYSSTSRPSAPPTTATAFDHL

COc1ccc2sc(N(CCCN(C)C)C(=O)c3ccc(S(=O)(=O)N(C)Cc4ccccc4)cc3)nc2c1
IC50 [1]: > 20 µM (inactive) | EC50 [2]: > 60 µM (not active) | EC50 [3]: 0.185 µM (active)

CCc1nnc(NC(=O)c2ccc(-c3ccccc3Cl)o2)s1
EC50 [4]: 6.73 µM (active) | EC50 (H4): 18.9 µM (active) | EC50 [5]: > 120 µM (not active)

COc1ccc(C(CCN2CCCC(C)C2)c2c(OC)cc(OC)c3c(-c4ccccc4)cc(=O)oc23)cc1 (stereo not drawn)
IC50 [1]: > 20 µM (inactive)

CCCCON1C(=O)c2cccc3cccc(c23)C1=O
EC50 [6]: > 53 µM (inactive) | IC50 [7]: > 47.1 µM (inactive)

COCCNC(=O)CSC1=N/C(=C/c2ccc(Cl)c(Cl)c2)C(=O)N1c1ccccc1F
EC50 [8]: 20 µM (active) | AC50 (INS1): 8.64 µM (active) | CC50 [9]: 47.8 µM (active)

COc1ccc(-[n+]2c(-c3ccc(Br)cc3)cn3c2CCCCC3)cc1
AC50 (INS1): 1.15 µM (active) | EC50 [2]: > 60 µM (not active) | EC50 [3]: 0.552 µM (active)

Cc1nc2cc(NC(=O)c3ccc(S(=O)(=O)N(C)c4ccccc4)cc3)ccc2o1
EC50 [4]: 23.9 µM (active) | EC50 (H4): 15.1 µM (active) | EC50 [5]: 26 µM (active)

c1ccc2oc(C3=NN=C(NC4CC4)SC3)cc2c1
EC50 [4]: > 120 µM (not active) | EC50 (H4): > 120 µM (not active) | EC50 [5]: > 120 µM (not active)

Cc1cc(S(=O)(=O)Nc2ccc(C(=O)NCC(C)(C)N3CCOCC3)cc2)ccc1F
EC50 [8]: > 195 µM (not active) | EC50 [6]: > 53 µM (inactive) | IC50 [7]: > 47.1 µM (inactive)

Cc1ccc(S(=O)(=O)N(CC(=O)N=Nc2c(O)[nH]c3ccccc23)c2ccc(C)c(C)c2)cc1
EC50 [6]: > 53 µM (inactive) | IC50 [7]: 3.25 µM (active)

COc1ccc(CN2CC(=O)N(c3cccc(Cl)c3)C2=S)cc1OC
EC50 [6]: > 53 µM (inactive) | IC50 [7]: > 47.1 µM (inactive)

Cc1ccc(C)c(N2CCN(C(=O)CCCOc3cc(=O)n(C)c4ccccc34)CC2)c1
AC50 (INS1): 2.78 µM (active)

COc1cccc(CNc2nc(-c3cccnc3)nc3ccccc23)c1
EC50 [6]: > 53 µM (inactive) | IC50 [1]: > 20 µM (inactive) | IC50 [7]: > 47.1 µM (inactive)

CCCC12C(=O)C(C)(C(c3ccccc3)=C1c1ccccc1)C1C(=O)N(c3ccc(C)cc3)C(=O)C12 (stereo not drawn)
AC50 (INS1): 4.16 µM (active)

Cc1nc(SCC(=O)c2cccs2)c2oc3ccccc3c2n1
EC50 [4]: 16 µM (active) | EC50 [10]: 21.2 µM (active) | EC50 (H4): 68 µM (active) | EC50 [5]: 21.5 µM (active) | EC50 (Streptococcus): 20.1 µM (active) | EC50 (Streptokinase A): > 150 µM (not active)

COc1ccc(-c2nnc3c4ccccc4c(C)nn23)cc1
EC50 [4]: 18.6 µM (active) | EC50 (H4): > 120 µM (not active) | EC50 [5]: 13.3 µM (active)

CC(C)N1CCc2c(sc(NC(=O)c3ccc(S(=O)(=O)N4CCc5ccccc54)cc3)c2C(N)=O)C1
IC50 [1]: > 20 µM (inactive)

OC1(C(F)(F)F)CC(O)(C(F)(F)F)n2nc(-c3ccccc3)cc2N1 (stereo not drawn)
EC50 [4]: > 120 µM (not active) | EC50 (H4): 11 µM (active) | EC50 [5]: > 120 µM (not active)

CNCC(O)c1cc(F)c(OCc2ccccc2)c(OCc2ccccc2)c1F (stereo not drawn)
IC50 [1]: > 20 µM (inactive)

CSC1=NCCN1C(=O)Cc1ccc(Cl)cc1
EC50 [6]: > 53 µM (inactive) | IC50 [7]: > 47.1 µM (inactive)

Cc1nn2c3ccccc3nc2n(C)c1=O
EC50 [6]: > 53 µM (inactive) | IC50 [7]: > 47.1 µM (inactive)

C[C@@H]1CCCCO[C@@H](CN(C)Cc2ccc(C(F)(F)F)cc2)[C@H](C)CN([C@@H](C)CO)C(=O)c2cc(NS(=O)(=O)c3ccccc3)ccc2O1
AC50 (Paired box protein Pax-8): 4.66 µM (active)

COc1ccc(/N=C/C=C2\C=C(c3ccccc3)OC(C)(C)O2)cc1
EC50 [4]: 10.2 µM (active) | EC50 (H4): > 120 µM (not active) | EC50 [5]: > 120 µM (not active)

CCCCC/N=C(/C)c1c(O)oc2ccccc2c1=O
EC50 [4]: 61.4 µM (active) | EC50 (H4): 9.36 µM (active) | EC50 [5]: > 120 µM (not active)

CC(C)=CCc1cc2c(=O)c3c(O)c4c(cc3oc2c(O)c1O)OC(C)C4(C)C (stereo not drawn) [GERONTOXANTHONE G]
AC50 (INS1): 5.18 µM (active) | EC50 [2]: 6.31 µM (active) | EC50 [11]: > 160 µM (inactive) | EC50 [12]: > 38 µM (not active) | EC50 [3]: 2.64 µM (active)

O=C(NC1CCCCC1)NS(=O)(=O)c1ccc2c(c1)CCC2 [GLYHEXAMIDE]
EC50 [6]: > 53 µM (inactive) | IC50 [7]: > 47.1 µM (inactive)

CC(=O)/N=c1/sc(S(N)(=O)=O)nn1C [METHAZOLAMIDE]
EC50 [6]: > 53 µM (inactive) | IC50 [7]: > 47.1 µM (inactive) | AC50 (Cytochrome P450 2C9): 12.6 µM (inconclusive)
